Earlier results on seven molecules are cited in patent publication US12539302B2, “Methods and compositions for the treatment of hair loss” (Aneira Pharma, Inc., priority 2019, dated 2026).

Read-outs that look alike come from different tables or passages of the source. A value given as a limit tells only on which side of the number the result lay.

For data set [1], the target named is T1, human FP receptors (Homo sapiens, UniProt P43088).
Data set [2] concerns the target T1, human FP receptors. The note with it: FP receptor agonist.
The test system of data set [3] is hair growth. The following applies: McCarey et al. 2004.
In data set [4] the test system is elevated intraocular pressure model of glaucoma. The note with it: Gagliuso et al. 2004.
The test system of data set [5] is elevated intraocular pressure. The note with it: patients non-responsive to latanoprost, Gandolfi 2003.
In data set [6] the test system is dihydrotestosterone (DHT) production. The note with it: oral; including prostate gland and scalp.
For data set [7] the following is noted: propylene glycol, methanol, ethanol and 2-propanol.
Data set [8] concerns hair growth.

T1 sequence (P43088 whole entry): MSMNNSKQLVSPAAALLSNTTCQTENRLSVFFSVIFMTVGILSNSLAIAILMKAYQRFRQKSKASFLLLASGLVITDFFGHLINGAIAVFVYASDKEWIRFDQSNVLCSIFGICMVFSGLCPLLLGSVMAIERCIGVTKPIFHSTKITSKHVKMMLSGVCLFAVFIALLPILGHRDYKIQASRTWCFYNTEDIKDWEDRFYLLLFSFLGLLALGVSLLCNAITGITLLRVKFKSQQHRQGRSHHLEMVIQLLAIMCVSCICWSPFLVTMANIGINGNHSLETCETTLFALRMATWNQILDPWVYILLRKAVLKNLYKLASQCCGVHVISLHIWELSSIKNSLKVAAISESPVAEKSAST

Take `O=C(O)CCC/C=C\C[C@@H]1[C@@H](CC[C@@H](O)CCc2ccccc2)[C@H](O)C[C@@H]1O` [Latanoprost free acid, Latanoprost acid]: at human FP receptors [1], the “potency as FP receptor ligand relative to latanoprost” value is on record as “two-hundred times more potent”. Also, the “potency relative to PGF2α” value on human FP receptors [2] is “twice the potency”. In the case of `CCCCCCCC(=O)CC[C@@H]1[C@@H](C/C=C\CCCC(=O)OC(C)C)[C@@H](O)C[C@H]1O` [Uenoprostone isopropyl ester, Unoprostone isopropyl ester], the hair growth entry in the data set with hair growth [3] is recorded as “cause no hair growth”. In the case of `CCNC(=O)CCC/C=C\C[C@@H]1[C@@H](/C=C/[C@@H](O)CCc2ccccc2)[C@H](O)C[C@@H]1O` [bimatoprost, Bimatoprost], in data set [4], the “effect on elevated intraocular pressure in combination” value is “additive to that of latanoprost”. Also, in data set [5], the “response in reducing elevated intraocular pressure” value is “responsive”. `CC(C)(C)NC(=O)[C@H]1CC[C@H]2[C@@H]3CC[C@H]4NC(=O)C=C[C@]4(C)[C@H]3CC[C@]12C` [finasteride, (1S,3aS,3bS,5aR,9aR,9bS,11aS)-N-tert-butyl-9a,11a-dimethyl-7-oxo-1,2,3,3a,3b,4,5,5a,6,9b,10,11-dodecahydroindeno[5,4-f]quinoline-1-carboxamide]: the “decrease of DHT production” value in [6] is reported as “about 70%”. In the case of `CC(C)OC(=O)CCC/C=C\C[C@@H]1[C@@H](CC[C@@H](O)CCc2ccccc2)[C@H](O)C[C@@H]1O` [latanoprost, Latanoprost], the time stable result is, setting by setting: (acidic or basic aqueous solutions) “no more than 48 hours”; (neutral aqueous solutions, room temperature) “stable for up to one month”. For the same molecule, the “solubility, highest concentration that can be used” value in data set [7] was no less than 5%. With `Nc1cc(N2CCCCC2)nc(N)[n+]1OS(=O)(=O)[O-]` [minoxidil sulphate], in the data set with hair growth [8], the “potency as hair growth agent compared to minoxidil” value was “much more potent”. As for `CCCCCCCC(=O)CC[C@@H]1[C@@H](C/C=C\CCCC(=O)O)[C@@H](O)C[C@H]1O` [uenoprostone free acid], in the data set with hair growth [3], the hair growth result is “cause no hair growth”.
